In patent US8198447B2, “Fused tricyclic compound having aldose reductase inhibitory activity” (National University Corporation University of Toyama, priority 2007, dated 2012):

target: Aldose reductase II (Homo sapiens, UniProt P15121); experiment: Aldose reductase inhibitory activity (NADPH decrease at 340 nm, DL-glyceraldehyde substrate); assay type: biochemical; conditions: pH 6.2, 100 mM DL-glyceraldehyde, 1.5 mM NADPH
Description: A reaction solution containing a 200 mM of a phosphate buffer solution (pH 6.2), 1.5 mM of reduced nicotinamide adenine dinucleotide phosphate (NADPH), 1 mg/ml of bovine serum albumin, a test compound, and 100 mM of DL-glyceraldehyde as a substrate was prepared. Aldose reductase II (5.1×10^−1 unit/ml) was added to the solution to initiate the reaction, and the amount of NADPH reduced by the reaction was measured at an absorption wavelength of 340 nm using a spectrophotometer.

IC50	Compound
6.2 µM	O=C(O)Cn1c2c(c3cc(Br)ccc31)CCN(Cc1ccccc1)C2=S [Compound 32, (2-Benzyl-6-bromo-1-thioxo-1,2,3,4-tetrahydro-β-carbolin-9-yl)acetic acid]
48.6 µM	O=C(O)Cn1c2c(c3cc(F)ccc31)CCN(Cc1ccccc1F)C2=O [Compound 25, [2-(2-Fluorophenylmethyl)-6-fluoro-1-oxo-1,2,3,4-tetrahydro-β-carbolin-9-yl]acetic acid]
7.2 µM	O=C(O)Cn1c2c(c3ccccc31)CCN(CC1CCCCC1)C2=S [Compound 34, (2-Cyclohexylmethyl-1-thioxo-1,2,3,4-tetrahydro-β-carbolin-9-yl)acetic acid]
48 µM	O=C(O)Cn1c2c(c3ccccc31)CCN(C(=O)c1cc(O)c(O)c(O)c1)C2=O [Compound 54, [2-(3,4,5-Trihydroxybenzoyl)-1-oxo-1,2,3,4-tetrahydro-β-carbolin-9-yl]acetic acid]
36.3 µM	O=C(O)Cn1c2c(c3ccccc31)CCN(c1ccccc1)C2=S [Compound 33, (2-Phenyl-1-thioxo-1,2,3,4-tetrahydro-β-carbolin-9-yl)acetic acid]
21.1 µM	O=C(O)Cn1c2c(c3c(F)cc(F)cc31)CCN(Cc1ccc(Br)cc1F)C2=S [Compound 39]
3.7 µM	O=C(O)Cn1c2c(c3ccc(Cl)cc31)CCN(Cc1ccccc1)C2=S [Compound 38, (2-Benzyl-7-chloro-1-thioxo-1,2,3,4-tetrahydro-β-carbolin-9-yl)acetic acid]
2.6 µM	COc1ccc2c(c1)c1c(n2CC(=O)O)C(=O)SCC1 [Compound 61, (6-Methoxy-1-oxo-3,4-dihydro-1H-2-thia-9-azafluoren-9-yl)acetic acid]
34.6 µM	O=C(O)Cn1c2c(c3ccccc31)CCN(C(=O)c1ccc(Br)cc1)C2=O [Compound 47, [2-(4-Bromobenzoyl)-1-oxo-1,2,3,4-tetrahydro-β-carbolin-9-yl]acetic acid]
16.3 µM	O=C(O)Cn1c2c(c3ccccc31)CCN(Cc1ccco1)C2=S [Compound 35, [2-(2-Furanylmethyl)-1-thioxo-1,2,3,4-tetrahydro-β-carbolin-9-yl]acetic acid]
53.1 µM	O=C(O)Cn1c2c(c3ccccc31)CCN(C(=O)c1ccccc1)C2=O [Compound 55, (2-Benzoyl-1-oxo-1,2,3,4-tetrahydro-β-carbolin-9-yl)acetic acid]
5.9 µM	Cc1cc(C)c2c3c(n(CC(=O)O)c2c1)C(=O)SCC3 [Compound 63, (5,7-Dimethyl-1-oxo-3,4-dihydro-1H-2-thia-9-azafluoren-9-yl)acetic acid]
21.7 µM	O=C(O)Cn1c2c(c3ccccc31)CCN(C(=O)c1ccc(F)cc1)C2=O [Compound 46, [2-(4-fluorobenzoyl)-1-oxo-1,2,3,4-tetrahydro-β-carbolin-9-yl)acetic acid]
2.6 µM	O=C(O)COc1ccc2c(c1)c1c(n2CC(=O)O)C(=S)N(Cc2ccccc2)CC1 [Compound 42, (2-Benzyl-6-carboxymethoxy-1-thioxo-1,2,3,4-tetrahydro-β-carbolin-9-yl)acetic acid]
51.5 µM	O=C(O)Cn1c2c(c3cc(F)ccc31)CCN(Cc1ccccc1)C2=O [Compound 22, (2-Benzyl-6-fluoro-1-oxo-1,2,3,4-tetrahydro-β-carbolin-9-yl)acetic acid]
3.4 µM	O=C(O)Cn1c2c(c3cc4c(cc31)CCCC4)CCSC2=O [Compound 65, (1-Oxo-3,4,6,7,8,9-hexahydro-1H-2-thia-11-azabenzo[b]fluoren-11-yl)acetic acid]
11.1 µM	O=C(O)Cn1c2c(c3cc(Cl)ccc31)CCOC2=S [Compound 31, (6-chloro-1-thioxo-3,4-dihydro-1H-pyrano[3,4-b]indol-9-yl) acetic acid]

IC50	Compound
35.8 µM	COc1ccc(C(=O)N2CCc3c(n(CC(=O)O)c4ccccc34)C2=O)cc1 [Compound 48]
27.4 µM	O=C(O)Cn1c2c(c3ccc(Cl)cc31)CCN(Cc1ccc(Br)cc1F)C2=S [Compound 37]
3.6 µM	O=C(O)Cn1c2c(c3c(Cl)cccc31)CCSC2=O [Compound 64, (5-Chloro-1-oxo-3,4-dihydro-1H-2-thia-9-azafluoren-9-yl)acetic acid]
5 µM	O=C(O)Cn1c2c(c3cc(Cl)ccc31)CCN(Cc1ccccc1)C2=S [Compound 27, (2-Benzyl-6-chloro-1-thioxo-1,2,3,4-tetrahydro-β-carbolin-9-yl)acetic acid]
1.1 µM	O=C(O)Cn1c2c(c3cc(Cl)ccc31)CCSC2=O [Compound 56, (6-chloro-1-oxo-3,4-dihydro-1H-2-thia-9-azafluoren-9-yl)acetic acid]
34.5 µM	O=C(O)Cn1c2c(c3ccccc31)CCN(C(=O)c1cc(F)cc(F)c1)C2=O [Compound 50, [2-(3.5-Difluorobenzoyl)-1-oxo-1,2,3,4-tetrahydro-β-carbolin-9-yl]acetic acid]
5.7 µM	COc1ccc2c(c1)c1c(n2CC(=O)O)C(=S)N(Cc2ccccc2)CC1 [Compound 29, (2-Benzyl-6-methoxy-1-thioxo-1,2,3,4-tetrahydro-β-carbolin-9-yl)acetic acid]
1.4 µM	CC(C)(C)c1ccc2c(c1)c1c(n2CC(=O)O)C(=O)SCC1 [Compound 59, (6-tert-Butyl-1-oxo-3,4-dihydro-1H-2-thia-9-azafluoren-9-yl)acetic acid]
45.3 µM	O=C(O)Cn1c2c(c3ccccc31)CCN(C(=O)c1ccc(F)cc1F)C2=O [Compound 49, [2-(2,4-Difluorobenzoyl)-1-oxo-1,2,3,4-tetrahydro-β-carbolin-9-yl]acetic acid]
1.6 µM	Cc1ccc2c(c1)c1c(n2CC(=O)O)C(=O)SCC1 [Compound 58, (6-Methyl-1-oxo-3,4-dihydro-1H-2-thia-9-azafluoren-9-yl)acetic acid]
4.8 µM	O=C(O)Cn1c2c(c3cc(O)ccc31)CCN(Cc1ccccc1)C2=S [Compound 40, (2-Benzyl-6-hydroxy-1-thioxo-1,2,3,4-tetrahydro-β-carbolin-9-yl)acetic acid]
1 µM	O=C(O)Cn1c2c(c3c4c(ccc31)CCCC4)CCSC2=O [Compound 66, (8-Oxo-1,3,4,8,10,11-hexahydro-2H-9-thia-7-azabenzo[c]fluoren-7-yl)acetic acid]
7.6 µM	O=C(O)Cn1c2c(c3ccccc31)CCN(Cc1cccs1)C2=S [Compound 36, [2-(2-Thienylmethyl)-1-thioxo-1,2,3,4-tetrahydro-β-carbolin-9-yl]acetic acid]
3.6 µM	O=C(O)Cn1c2c(c3cc(Cc4ccccc4)ccc31)CCSC2=O [Compound 60, (6-Benzyl-1-oxo-3,4-dihydro-1H-2-thia-9-azafluoren-9-yl)acetic acid]
68.3 µM	O=C(O)Cn1c2c(c3ccccc31)CCN(C(=O)c1ccc(Br)cc1F)C2=O [Compound 51, [2-(2-Fluoro-4-bromobenzoyl)-1-oxo-1,2,3,4-tetrahydro-β-carbolin-9-yl]acetic acid]
2.8 µM	O=C(O)Cn1c2c(c3ccccc31)CCSC2=O [Compound 57, (1-Oxo-3,4-dihydro-1H-2-thia-9-azafluoren-9-yl)acetic acid]

Compound	IC50
COc1cc(C(=O)N2CCc3c(n(CC(=O)O)c4ccccc34)C2=O)cc(OC)c1OC [Compound 53, [2-(3,4,5-Trimetoxybenzoyl)-1-oxo-1,2,3,4-tetrahydro-β-carbolin-9-yl]acetic acid]	46.8 µM
